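In this assay, cells in 96-well plates receive the compound at five concentrations for 48 hours. Endpoints are linearly interpolated between the surrounding concentrations. Abbreviation: GI50, concentration required for 50% inhibition of growth. At the TGI there is no net growth.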

Data on nine compounds can be found in PubChem BioAssay (NCI).

Test systems include HCC-2998 colon; RXF 393 renal; SK-MEL-2 melanoma; M14 melanoma; OVCAR-5 ovarian; SK-MEL-5 melanoma; SK-OV-3 ovarian; T-47D breast; NCI-H23 lung; EKVX NSCLC.
Assay in all cases: inhibition of tumour cell growth, NCI panel, 48 h

With `Cc1ccc(C2=NN(c3ccc(S(=O)(=O)NC(=O)NCc4ccccc4)cc3)C(c3ccc(N(C)C)cc3)C2)c(C)c1` (centres undefined), the GI50 in the assay with HCC-2998 colon was 2.45 µM; with RXF 393 renal it was 3 µM; in the assay on SK-MEL-2 melanoma, 3.32 µM; in the assay on M14 melanoma, 3.57 µM; in the assay on OVCAR-5 ovarian it was 5.4 µM; in the assay with SK-MEL-5 melanoma it was 2320 nM. Also, the GI50 in the assay on SK-OV-3 ovarian is 8.43 µM; in the assay on T-47D breast it was 6740 nM; in the assay on NCI-H23 lung it was 3.6 µM. For the same compound, the TGI with HCC-2998 colon was determined as 5.65 µM; in the assay with RXF 393 renal, 9.8 µM; in the assay with SK-MEL-2 melanoma, 8.85 µM; in the assay on M14 melanoma it was 23.4 µM; in the assay with OVCAR-5 ovarian, 29.3 µM; in the assay with SK-MEL-5 melanoma, 5.62 µM. Further, the TGI is more than 100 µM in the assay with SK-OV-3 ovarian, more than 100 µM in the assay on T-47D breast and 17.8 µM with NCI-H23 lung.
`C=C(C)COc1ccc2c(c1)CCC1C2CCC2(C)C(=O)/C(=N/O)CC12` (centres undefined): the TGI in the assay with RXF 393 renal was found to be 6.78 µM; in the assay with EKVX NSCLC it was 9.32 µM; with SK-MEL-2 melanoma it was 14.1 µM; in the assay on M14 melanoma it was 14.4 µM; in the assay on OVCAR-5 ovarian, 18.7 µM; in the assay with SK-MEL-5 melanoma it was 21.1 µM. Further, the TGI in the assay on SK-OV-3 ovarian came out at 22.4 µM; with T-47D breast it was 8.61 µM; in the assay on NCI-H23 lung, 15.5 µM.
For `Clc1nc(Cl)c2ncn(-c3ccccc3)c2n1`, the GI50 with RXF 393 renal was 5.66 µM; with EKVX NSCLC it was 4.49 µM; in the assay with SK-MEL-2 melanoma, 13.8 µM; in the assay on M14 melanoma, 1.86 µM; in the assay on OVCAR-5 ovarian it was 15 µM; with SK-MEL-5 melanoma, 10400 nM. Also, the GI50 in the assay with SK-OV-3 ovarian was 12.5 µM; with T-47D breast it was 2950 nM; in the assay on NCI-H23 lung, 2.14 µM. Moreover, the TGI turned out to be 18.8 µM in the assay on RXF 393 renal; 19.2 µM with EKVX NSCLC; 27.1 µM in the assay with SK-MEL-2 melanoma; 3.85 µM in the assay on M14 melanoma; 30.4 µM with OVCAR-5 ovarian; 22.3 µM in the assay on SK-MEL-5 melanoma. Moreover, the TGI with SK-OV-3 ovarian is 25 µM; in the assay with T-47D breast it was 8.63 µM; with NCI-H23 lung, 4.84 µM.
As for `NC(=O)c1c[nH]c2ncnc(N)c12`, the GI50 in the assay on HCC-2998 colon is 73 µM; in the assay with EKVX NSCLC it was 39 µM; in the assay with SK-MEL-2 melanoma, 47.2 µM; in the assay with M14 melanoma, 47.9 µM; with OVCAR-5 ovarian it was more than 100 µM; in the assay on SK-MEL-5 melanoma, 84300 nM. In addition, the figures for the GI50 in the assay on SK-OV-3 ovarian, in the assay with T-47D breast and in the assay with NCI-H23 lung were 25.9 µM, 35300 nM and more than 100 µM, respectively. Further, the TGI in the assay on HCC-2998 colon, with EKVX NSCLC, with SK-MEL-2 melanoma, with M14 melanoma, with OVCAR-5 ovarian and in the assay on SK-MEL-5 melanoma was more than 100 µM throughout. For the same compound, the TGI in the assay with SK-OV-3 ovarian is 83 µM; in the assay on T-47D breast, more than 100 µM; with NCI-H23 lung, more than 100 µM.
Take `O=C1/C(=C/c2ccc(Cl)cc2)CN(Cc2cn(CCCNc3ccnc4cc(Cl)ccc34)nn2)C/C1=C\c1ccc(Cl)cc1`: the GI50 was 0.273 µM in the assay with HCC-2998 colon; 1.65 µM with RXF 393 renal; 2.03 µM in the assay with SK-MEL-2 melanoma; 1.72 µM with M14 melanoma; 1.26 µM in the assay on OVCAR-5 ovarian; 1720 nM in the assay with SK-MEL-5 melanoma. In addition, the GI50 in the assay with SK-OV-3 ovarian was 1.84 µM; in the assay with T-47D breast, 1950 nM; in the assay with NCI-H23 lung, 1.26 µM. For the same compound, the TGI in the assay on HCC-2998 colon is 0.712 µM; in the assay on RXF 393 renal it was 3.15 µM; with SK-MEL-2 melanoma it was 3.71 µM; in the assay on M14 melanoma, 3.68 µM; with OVCAR-5 ovarian, 3.06 µM; with SK-MEL-5 melanoma, 3.14 µM. Moreover, the TGI with SK-OV-3 ovarian came to 3.52 µM; with T-47D breast it was 6.37 µM; in the assay on NCI-H23 lung, 3.82 µM.
Turning to `O=S(=O)(NCCNc1nccc(-c2c(-c3ccc(F)cc3)nc3sccn23)n1)c1ccc(O)cc1`, the GI50 in the assay on HCC-2998 colon was 15.5 µM; with RXF 393 renal, 4.27 µM; in the assay with SK-MEL-2 melanoma it was 4.18 µM; with M14 melanoma, 3.36 µM; with OVCAR-5 ovarian, 11.8 µM; with SK-MEL-5 melanoma, 1390 nM. Moreover, the GI50 was 9.17 µM with SK-OV-3 ovarian, 2360 nM in the assay on T-47D breast and 4.96 µM with NCI-H23 lung. The TGI in the assay with HCC-2998 colon is 51.1 µM; in the assay with RXF 393 renal, 24.8 µM; in the assay on SK-MEL-2 melanoma, 17.3 µM; with M14 melanoma, 18.1 µM; with OVCAR-5 ovarian, more than 100 µM; with SK-MEL-5 melanoma it was 10.7 µM. In addition, the TGI in the assay on SK-OV-3 ovarian came out at 73 µM; in the assay on T-47D breast, 19.2 µM; in the assay on NCI-H23 lung it was 28.1 µM.
Turning to `Cc1ccc2ncnc(N(C)C3CCCCC3)c2c1`, the GI50 with HCC-2998 colon is 28.8 µM; in the assay with RXF 393 renal, 3.84 µM; in the assay on SK-MEL-2 melanoma, 37.5 µM; in the assay on M14 melanoma, 24.3 µM; with OVCAR-5 ovarian it was 41.2 µM; in the assay with SK-MEL-5 melanoma, more than 100000 nM. Moreover, the GI50 is 33.2 µM in the assay on SK-OV-3 ovarian, 76900 nM in the assay on T-47D breast and 26.5 µM in the assay on NCI-H23 lung. Moreover, the TGI with HCC-2998 colon was 70.2 µM; in the assay with RXF 393 renal it was 17.9 µM; in the assay on SK-MEL-2 melanoma, more than 100 µM; with M14 melanoma it was 63.4 µM; with OVCAR-5 ovarian it was more than 100 µM; with SK-MEL-5 melanoma, more than 100 µM. In addition, the figures for the TGI in the assay on SK-OV-3 ovarian, with T-47D breast and with NCI-H23 lung were more than 100 µM, more than 100 µM and 74.4 µM, respectively.
`COc1cc(-c2oc3c(OC)c(O)c(OC)c(O)c3c(=O)c2OC)cc(OC)c1OC`: the TGI in the assay on HCC-2998 colon, in the assay on EKVX NSCLC, in the assay on SK-MEL-2 melanoma, with M14 melanoma, with OVCAR-5 ovarian and with SK-MEL-5 melanoma was more than 100 µM in each case. For the same compound, the TGI with SK-OV-3 ovarian, with T-47D breast and in the assay with NCI-H23 lung was more than 100 µM throughout.
As for `O=C(/C=C(/C=C/c1cccc2[nH]ccc12)OB(F)F)/C=C/c1cccc2[nH]ccc12`, the GI50 in the assay on HCC-2998 colon is 1.91 µM; in the assay on EKVX NSCLC, 1.46 µM; in the assay with SK-MEL-2 melanoma, 2.09 µM; with M14 melanoma, 1.07 µM; in the assay on OVCAR-5 ovarian, 1.42 µM; in the assay on SK-MEL-5 melanoma, 1260 nM. Besides, the figures for the GI50 with SK-OV-3 ovarian, in the assay with T-47D breast and with NCI-H23 lung were 2.19 µM, 796 nM and 0.838 µM, respectively. In addition, the TGI with HCC-2998 colon is 3.63 µM; in the assay on EKVX NSCLC, 5.54 µM; with SK-MEL-2 melanoma, 5.63 µM; in the assay with M14 melanoma, 6.93 µM; with OVCAR-5 ovarian, 3.59 µM; with SK-MEL-5 melanoma, 2.73 µM. Besides, the TGI is 5.77 µM with SK-OV-3 ovarian, 26.8 µM in the assay with T-47D breast and 3.92 µM in the assay with NCI-H23 lung.
